Laboratory results reported in paper PMC8576102, “Structure–Activity Relationship of Novel Second-Generation Synthetic Cathinones: Mechanism of Action, Locomotion, Reward, and Immediate-Early Genes” (Frontiers in Pharmacology, 2021).

Assays:
[1] = target: T1, hDAT (Homo sapiens, UniProt Q01959); test: Uptake inhibition assay, [3H]MPP+ uptake in transfected HEK293 cells; type: cell-based; conditions: for hDAT/hSERT ratio: 1/DAT IC50: 1/SERT IC50
T1 construct: YFP (yellow-fluorescent protein); expressed in transfected cells
Protocol: (§1) Human embryonic kidney (HEK293) cells stably expressing the yellow-fluorescent protein (YFP)-tagged version of the human isoforms of SERT (abbreviated as SERT) and DAT (abbreviated as DAT) were used for the uptake inhibition and release assays. The generation and maintenance of stable, monoclonal cell lines expressing these transporters was conducted as described by ([Mayer F. P. et al., 2016]; [Mayer et al., 2016 FP.]). HEK293 cells were maintained in DMEM supplemented with heat-inactivated 10% FBS, 100 µg/100 ml streptomycin, 100 U/ml penicillin, and Geneticin (G418; 50 μg/ml) and cultured in a humidified atmosphere (5% CO2, 37°C). The cells were seeded at a density of 0.36 million cells/well onto 96-well plates previously coated (24 h) with poly-D-lysine (PDL).
(§2) The medium was removed and immediately replaced with 200 µL/well of Krebs-HEPES buffer (KHB; 10 mM HEPES, 120 mM NaCl, 3 mM KCl, 2 mM CaCl2·2H2O, 2 mM MgCl2·6H2O, 20 mM D-glucose; pH 7.3). The cells were pre-incubated with different concentrations of the drug in KHB at a final volume of 50 µL/well for 5 min (DAT, SERT). Immediately after, the pre-incubation solution was removed and the cells were incubated with the tritiated substrates, 0.02 µM [^3H]MPP^+ for the DAT (3 min) and 0.1 µM [^3H]5-HT for the SERT (1 min), along with different concentrations of the drug in KHB. Finally, the [^3H]substrate was removed and the cells were washed with ice-cold KHB followed by the addition of sodium dodecyl sulfate (SDS) 1%. The lysate was then added to the scintillation fluid, and the radioactivity was quantified with a beta-scintillation counter (Perkin Elmer, Waltham, MA, United States).
(§3) The uptake in the absence of the drug compound was normalized to 100%, being the percentage of the uptake in the presence of different concentrations of the drug expressed as a percentage thereof. 3–4 independent experiments were performed in duplicate.
(§4) Data were expressed as mean ± SEM. Competition curves were plotted and fitted by non-linear regression, and data were best fitted to a sigmoidal dose-response curve to obtain an IC50 value. 1/DAT IC50: 1/SERT IC50 was used to calculate transporter ratios. Data from batch release assays were statistically analyzed with a mixed-effects model, employing Šidák’s correction for multiple comparisons. One-way/two-way ANOVA or two-way ANOVA of repeated measures, followed by Tukey’s or Dunnett’s post hoc test, was also used when appropriate. The α error probability was set at 0.05 (p < 0.05). The size group for each experiment and statistical results are shown in the corresponding legend of figures. Statistical calculations were performed using GraphPad Prism (GraphPad Software, San Diego, CA, United States).

[2] = target: T2, hSERT (Homo sapiens, UniProt P31645); test: Uptake inhibition assay, [3H]5-HT uptake in transfected HEK293 cells; type: cell-based
T2 construct: YFP (yellow-fluorescent protein); expressed in transfected cells
Protocol: as §1, §2, §3, §4

[3] = system: T3, SERT; test: Batch release assay, [3H]5-HT release from SERT-expressing HEK293 cells; type: cell-based, human; conditions: compound close to its IC50; KHB vs KHB + monensin 10 µM
T3 construct: YFP (yellow-fluorescent protein); expressed in transfected cells
Protocol: as §1
HEK293 cells expressing the transporter of interest were preloaded with the tritiated substrate 0.08 μM [^3H]5-HT (SERT) or 0.1 μM [^3H]MPP^+ (DAT) in KHB (50 μL/well) for 20 min (5% CO2, 37°C). Subsequently, the cells were washed three times using KHB (200 μL/well) at room temperature. Afterward, a pre-incubation step of 10 min in KHB or in KHB + monensin (Mon) 10 μM was done. […] To determine the specificity of drug-induced reverse transport, selective transporter inhibitors 0.05 μM paroxetine (SERT) and 0.5 μM of GBR12909 (DAT) and effective releasers 10 μM p-chloroamphetamine (PCA; SERT) and 10 μM d-amphetamine (DAT) were used (Supplementary Figure S1). The resulting supernatant was collected and transferred to a new well every 2 min (four times for KHB/Mon and five times for each tested compound). Three independent experiments were performed in duplicate. Liquid scintillation cocktail was added to the wells with remaining cells (200 μL) and with the transferred supernatant (100 μL) and to the wells used for total uptake and activity measurements (200 μL). Total radioactivity present in the supernatant and in the remaining cells was set as 100%, and the amount of [^3H] substrate present in the supernatant was expressed as percentage of the total.
as §4

[4] = system: Swiss CD-1 mice; test: Horizontal locomotor activity (HLA); type: in vivo; conditions: for HLA after 30 mg/kg compared to the medium dose (10 mg/kg): 30 mg/kg vs 10 mg/kg i.p.
[5] = system: Arc mRNA; test: Arc mRNA expression (qPCR) in ventral and dorsal striatum; type: in vivo, mice; conditions: 10 mg/kg i.p., 120 min after administration, vs saline
Protocol: (§5) Mice were injected with an acute dose of 10 mg/kg i.p. of the corresponding synthetic cathinone or saline solution. The dose was chosen according to the behavioral results obtained since it caused significant response in both CPP and HLA tests in all compounds tested. 30 min or 2 h post-administration, mice were sacrificed by cervical dislocation and the VS, DS, and mPFC were dissected out ([Paxinos and Franklin, 2004]) using a mouse brain acrylic matrix (Agnthos, Sweden) and stored at -80°C until use. Total RNA was isolated following a standard TRIsure reagent–chloroform extraction protocol ([Duart-Castells et al., 2019]).
(§6) Reverse transcription polymerase chain reaction (RT-PCR) was carried out to obtain complementary DNA (cDNA) by using the High Capacity cDNA Reverse Transcription Kit (Applied Biosystems) and the Veriti thermal cycler (Applied Biosystems, Foster, CA, United States). Synthesis of cDNA was obtained by mixing 1,000 ng of total RNA with the corresponding volumes of each kit reagent to a final volume of 20 μL. Quantitative real-time polymerase chain reaction (qPCR) was performed by using the StepOnePlus^TM Real-Time PCR System and TaqMan PCR Master Mix (Applied Biosystems, Foster, CA, United States). 25 ng of cDNA was loaded in a final volume of 20 μL containing sequence-specific primers and TaqMan probes (Mm01204954_g1 for Arc, Mm04230607_s1 for bdnf, Mm00487425_m1 for c-fos, and Mm00607939_s1 for β-actin). Each sample was tested in duplicate. qPCR conditions were 2 min at 50°C, 10 min at 95°C, 40 cycles/15 s at 95°C, and 60 s at 60°C. Changes in gene expression were defined by using the comparative Ct method for each experimental sample. Gene expression was normalized by using the mean of Ct values of the housekeeping gene β-actin.

[6] = system: c-fos mRNA; test: c-fos mRNA expression (qPCR) in ventral and dorsal striatum; type: in vivo, mice; conditions: 10 mg/kg i.p., vs saline; for c-fos expression in the DS, 120 min: 120 min post injection; for c-fos expression in the VS, 120 min: 120 min after administration; for c-fos expression in the DS, 30 min: 30 min after injection
Protocol: as §5, §6

[7] = system: Arc mRNA; set-up: method as in Giannotti et al., 2017; conditions: 30 min and 2 h after administration; ref Giannotti et al., 2017; cited from earlier work

T1 sequence (Q01959 whole entry): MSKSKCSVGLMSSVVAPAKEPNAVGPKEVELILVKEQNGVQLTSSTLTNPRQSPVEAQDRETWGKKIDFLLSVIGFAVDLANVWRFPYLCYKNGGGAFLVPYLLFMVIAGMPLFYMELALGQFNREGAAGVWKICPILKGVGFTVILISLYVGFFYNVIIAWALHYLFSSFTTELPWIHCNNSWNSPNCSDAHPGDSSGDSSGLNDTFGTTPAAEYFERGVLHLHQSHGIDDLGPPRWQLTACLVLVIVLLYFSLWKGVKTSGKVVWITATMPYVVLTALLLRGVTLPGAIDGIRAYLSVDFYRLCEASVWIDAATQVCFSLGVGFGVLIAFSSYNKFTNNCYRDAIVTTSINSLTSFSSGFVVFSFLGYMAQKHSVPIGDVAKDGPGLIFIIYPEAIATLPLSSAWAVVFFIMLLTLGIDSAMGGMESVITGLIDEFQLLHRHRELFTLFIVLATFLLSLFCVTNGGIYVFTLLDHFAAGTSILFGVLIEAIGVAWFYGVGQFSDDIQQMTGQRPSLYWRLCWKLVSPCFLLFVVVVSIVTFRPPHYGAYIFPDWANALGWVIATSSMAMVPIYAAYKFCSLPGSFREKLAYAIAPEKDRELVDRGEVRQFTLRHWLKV
T2 sequence (P31645 whole entry): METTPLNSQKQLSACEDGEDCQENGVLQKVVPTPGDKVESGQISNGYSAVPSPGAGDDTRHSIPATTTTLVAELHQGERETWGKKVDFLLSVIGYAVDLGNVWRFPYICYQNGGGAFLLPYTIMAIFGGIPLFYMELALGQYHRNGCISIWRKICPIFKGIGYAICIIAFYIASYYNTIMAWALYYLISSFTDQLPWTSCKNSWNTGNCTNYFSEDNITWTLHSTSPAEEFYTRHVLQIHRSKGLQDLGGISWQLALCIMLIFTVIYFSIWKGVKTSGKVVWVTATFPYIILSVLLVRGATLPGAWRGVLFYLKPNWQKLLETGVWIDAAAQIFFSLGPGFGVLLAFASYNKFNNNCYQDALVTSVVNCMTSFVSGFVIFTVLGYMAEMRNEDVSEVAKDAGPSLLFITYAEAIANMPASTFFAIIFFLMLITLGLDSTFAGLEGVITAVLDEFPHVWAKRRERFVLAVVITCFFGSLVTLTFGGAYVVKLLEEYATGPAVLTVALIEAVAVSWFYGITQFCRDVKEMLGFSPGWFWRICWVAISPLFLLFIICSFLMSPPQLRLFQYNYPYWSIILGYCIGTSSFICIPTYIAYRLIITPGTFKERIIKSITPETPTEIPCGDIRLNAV

| Compound | IC50 [1] [µM] | hDAT/hSERT ratio [1] | IC50 [2] [µM] | [3H]5-HT release at the SERT (in words) [3] | HLA after 30 mg/kg compared to the medium dose (10 mg/kg) [4] | Arc gene expression in the DS, 120 min [5] | Arc gene expression in the VS, 120 min [5] | c-fos expression in the DS, 120 min [6] | c-fos expression in the VS, 120 min [6] | HLA vs saline at the lowest dose ([4]; 3 mg/kg i.p., 60 min) | Persistence of the increase in locomotor activity ([4]; 10 mg/kg i.p.) | c-fos expression in the DS, 30 min [6] | Distance traveled ([4]; 10 mg/kg, independent experiment, N = 15) | Arc mRNA levels in the striatum after acute injection [7] |
| --- | --- | --- | --- | --- | --- | --- | --- | --- | --- | --- | --- | --- | --- | --- |
| CCCC(NC)C(=O)c1ccc2c(c1)OCO2 (stereo not drawn) [Pentylone, 3’,4’-methylendioxy-α-methylaminovalerophenone] | 0.51 ± 0.07 | 45 | 23.2 ± 2.68 | milder release | significant increase | significant increase | significant increase | increased |  |  |  |  |  |  |
| CCCC(NC)C(=O)c1ccccc1 (stereo not drawn) [Pentedrone, α-methylaminovalerophenone] | 0.21 ± 0.02 | 666 | 138 ± 13.4 | milder release | ceiling effect |  |  | increased | significant increase |  |  |  |  |  |
| CCCC(NCC)C(=O)c1ccccc1 (stereo not drawn) [N-Ethyl-pentedrone, α-ethylaminovalerophenone] | 0.1 ± 0.03 | >1,000 | 127 ± 5.14 | most potent | ceiling effect | significant increase | significant increase | increased | significant increase | increase | more than 1 hour | significant overexpression |  |  |
| COC(=O)[C@H]1[C@@H](OC(=O)c2ccccc2)C[C@@H]2CC[C@H]1N2C [Cocaine, reference compound] |  |  |  |  |  |  |  |  |  |  |  |  | 16,018 ± 1,118 cm |  |
| CCCC(C(=O)c1ccccc1)N1CCCC1 (stereo not drawn) [α-PVP] |  |  |  |  |  |  |  |  |  |  |  |  |  | did not alter |
| CCCC(NCC)C(=O)c1ccc(C)cc1 (stereo not drawn) [4-MeAP, 4’-methyl-α-ethylaminovalerophenone] | 0.14 ± 0.02 | 93 | 13.3 ± 0.89 | most potent | significant increase | significant increase | significant increase | increased |  |  |  | significant overexpression |  |  |
| CCCC(C(=O)c1ccc2c(c1)OCO2)N1CCCC1 (centres unmarked) [MDPV, 3,4-methylenedioxypyrovalerone] |  |  |  |  |  |  |  |  |  |  |  |  |  | increased |
| CCCC(NC)C(=O)c1ccc(C)cc1 (stereo not drawn) [4-MPD, 4’-methyl-α-methylaminovalerophenone] | 0.29 ± 0.05 | 108 | 30.9 ± 6.23 | most potent | significant increase |  |  |  |  |  |  |  |  |  |
